From ChEMBL document CHEMBL6177983, “PSMA-Guided PROTAC Degraders for Tumor-Specific Protein Degradation in Prostate Cancer” (J Med Chem, 2025)
One block for each compound: values may come before it. The source made the active and inactive calls. The calls are words filed in the database; no cut-off is given here.

Key:
CWR22R = experiment: Cytotoxicity against human 22Rv1 cells assessed as cell viability incubated for 72 hrs by CCK-8 assay; format: functional, cell-based
J82 = experiment: Cytotoxicity against human J82 cells assessed as cell viability incubated for 72 hrs by CCK-8 assay; format: functional, cell-based
LNCaP [1] = experiment: Antitumor activity against human LNCaP cells xenografted in BALB/c mouse assessed as tumor growth inhibition at 1.02 mmol/L, iv administered every day for 21 days; format: functional; details: 504 h, time 21 day, read-out: TGI
LNCaP [2] = experiment: Cytotoxicity against human LNCaP cells assessed as cell viability incubated for 72 hrs by CCK-8 assay; format: functional, cell-based
DU-145 = experiment: Cytotoxicity against human DU-145 cells assessed as cell viability incubated for 72 hrs by CCK-8 assay; format: functional, cell-based
LNCaP [3] = experiment: Antitumor activity against human LNCaP cells xenografted in BALB/c mouse assessed as tumor growth inhibition at 0.51 mmol/L, iv administered every day for 21 days; format: functional; details: 504 h, time 21 day, read-out: TGI
VCaP = experiment: Cytotoxicity against human VCaP cells assessed as cell viability incubated for 72 hrs by CCK-8 assay; format: functional, cell-based
HEK-293T = experiment: Cytotoxicity against HEK293T cells assessed as cell viability incubated for 72 hrs by CCK-8 assay; format: toxicity, cell-based; details: human
Mus musculus = experiment: In vivo PROTAC activity at BRD4/VHL in BALB/c mouse xenografted with human LNCaP cells assessed as reduction in AR level in tumor at 1 mmol/L, iv measured for 3 days by Western blot analysis; format: functional, organism-based; details: time 3.0 day
[4] = biological target: T1, von Hippel-Lindau disease tumor suppressor/Androgen receptor (Homo sapiens, UniProt P10275+P40337); experiment: In vivo PROTAC activity at AR/VHL in BALB/c mouse xenografted with human LNCaP cells assessed as reduction in AR level in tumor at 1 mmol/L, iv measured at 72 hrs by Western blot analysis; format: functional, organism-based
Target sequence in this assay (P10275 whole entry, looked up): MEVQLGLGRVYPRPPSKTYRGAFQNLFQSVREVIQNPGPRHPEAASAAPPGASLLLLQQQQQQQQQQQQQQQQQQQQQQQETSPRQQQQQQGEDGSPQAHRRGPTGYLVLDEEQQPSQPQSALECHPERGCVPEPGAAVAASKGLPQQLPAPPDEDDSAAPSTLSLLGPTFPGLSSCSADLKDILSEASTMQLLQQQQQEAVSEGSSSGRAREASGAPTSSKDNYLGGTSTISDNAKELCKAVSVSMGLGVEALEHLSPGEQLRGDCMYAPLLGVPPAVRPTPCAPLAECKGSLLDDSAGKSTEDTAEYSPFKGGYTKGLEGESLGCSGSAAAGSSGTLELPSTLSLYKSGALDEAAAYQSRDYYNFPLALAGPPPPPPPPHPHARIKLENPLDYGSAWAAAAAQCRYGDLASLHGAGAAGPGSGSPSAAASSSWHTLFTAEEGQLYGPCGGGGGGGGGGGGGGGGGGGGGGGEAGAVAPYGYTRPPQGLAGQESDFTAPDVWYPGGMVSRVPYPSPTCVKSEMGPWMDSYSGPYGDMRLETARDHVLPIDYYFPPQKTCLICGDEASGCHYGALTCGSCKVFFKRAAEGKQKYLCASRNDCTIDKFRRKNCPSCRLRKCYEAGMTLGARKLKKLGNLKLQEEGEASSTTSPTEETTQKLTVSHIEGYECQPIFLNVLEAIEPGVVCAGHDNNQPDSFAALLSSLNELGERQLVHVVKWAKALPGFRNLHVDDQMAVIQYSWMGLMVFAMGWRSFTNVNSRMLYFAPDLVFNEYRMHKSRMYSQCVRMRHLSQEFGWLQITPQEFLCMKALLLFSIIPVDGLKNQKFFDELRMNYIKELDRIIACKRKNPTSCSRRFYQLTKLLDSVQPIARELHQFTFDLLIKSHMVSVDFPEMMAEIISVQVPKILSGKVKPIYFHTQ
Target sequence in this assay (P40337 whole entry, looked up): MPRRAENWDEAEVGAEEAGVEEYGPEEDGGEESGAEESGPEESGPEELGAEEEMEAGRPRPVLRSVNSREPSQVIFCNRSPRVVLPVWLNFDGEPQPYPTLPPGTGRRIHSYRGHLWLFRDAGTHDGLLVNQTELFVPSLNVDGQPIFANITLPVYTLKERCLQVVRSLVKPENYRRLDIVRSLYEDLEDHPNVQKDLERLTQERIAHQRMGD

[5] = biological target: T1, von Hippel-Lindau disease tumor suppressor/Androgen receptor; experiment: In vivo PROTAC activity at AR/VHL in BALB/c mouse xenografted with human LNCaP cells assessed as reduction in AR level in tumor at 1 mmol/L, iv measured at 48 hrs by Western blot analysis; format: functional, organism-based
Target sequence in this assay (P10275 whole entry, looked up): as the sequence (P10275 whole entry, looked up) above
Target sequence in this assay (P40337 whole entry, looked up): as the sequence (P40337 whole entry, looked up) above

[6] = biological target: T1, von Hippel-Lindau disease tumor suppressor/Androgen receptor; experiment: PROTAC activity at AR/VHL in human LNCaP cells assessed as induction of androgen receptor degradation at 0.03 to 3 uM measured for 12 hrs by Western blot analysis; format: cell-based; details: dose 0.03-3 µM
Target sequence in this assay (P10275 whole entry, looked up): as the sequence (P10275 whole entry, looked up) above
Target sequence in this assay (P40337 whole entry, looked up): as the sequence (P40337 whole entry, looked up) above

[7] = biological target: T1, von Hippel-Lindau disease tumor suppressor/Androgen receptor; experiment: PROTAC activity at AR/VHL in human 22Rv1 cells assessed as induction of androgen receptor degradation at 0.03 to 3 uM measured for 12 hrs by Western blot analysis; format: cell-based; details: dose 0.03-3 µM
Target sequence in this assay (P10275 whole entry, looked up): as the sequence (P10275 whole entry, looked up) above
Target sequence in this assay (P40337 whole entry, looked up): as the sequence (P40337 whole entry, looked up) above

LNCaP [8] = experiment: Downregulation of FKB51 expression in human LNCaP cells measured up to 5 uM incubated for 12 hrs by RT-qPCR analysis; format: functional, cell-based
[9] = biological target: T1, von Hippel-Lindau disease tumor suppressor/Androgen receptor; experiment: PROTAC activity at AR/VHL in human MDA-MB-231 cells assessed as effect on AR level at 0.03 to 10 uM measured for 12 hrs by Western blot analysis; format: cell-based; details: dose 0.03-10 µM
Target sequence in this assay (P10275 whole entry, looked up): as the sequence (P10275 whole entry, looked up) above
Target sequence in this assay (P40337 whole entry, looked up): as the sequence (P40337 whole entry, looked up) above

[10] = biological target: T1, von Hippel-Lindau disease tumor suppressor/Androgen receptor; experiment: PROTAC activity at AR/VHL in human 22Rv1 cells assessed as induction of androgen receptor degradation at 1 uM measured for 6 hrs in presence of PSMA ligand by Western blot analysis; format: cell-based
Target sequence in this assay (P10275 whole entry, looked up): as the sequence (P10275 whole entry, looked up) above
Target sequence in this assay (P40337 whole entry, looked up): as the sequence (P40337 whole entry, looked up) above

[11] = biological target: T1, von Hippel-Lindau disease tumor suppressor/Androgen receptor; experiment: PROTAC activity at AR/VHL in human 22Rv1 cells assessed as induction of androgen receptor degradation at 1 uM measured for 6 hrs in presence of VH032 by Western blot analysis; format: cell-based
[12] = biological target: T1, von Hippel-Lindau disease tumor suppressor/Androgen receptor; experiment: PROTAC activity at AR/VHL in human LNCaP cells assessed as induction of androgen receptor degradation at 1 uM measured for 6 hrs in presence of PSMA ligand by Western blot analysis; format: cell-based
[13] = Stability of the compound in PBS buffer measured up to 24 hrs by HPLC analysis; format: physicochemical; details: read-out: Stability
[14] = biological target: T1, von Hippel-Lindau disease tumor suppressor/Androgen receptor; experiment: PROTAC activity at AR/VHL in human VCaP cells assessed as induction of androgen receptor degradation at 0.03 to 3 uM measured for 12 hrs by Western blot analysis; format: cell-based; details: dose 0.03-3 µM
[15] = biological target: T1, von Hippel-Lindau disease tumor suppressor/Androgen receptor; experiment: PROTAC activity at AR/VHL in human 22Rv1 cells assessed as induction of androgen receptor degradation at 1 uM measured for 6 hrs in presence of MG132 by Western blot analysis; format: cell-based
[16] = biological target: T1, von Hippel-Lindau disease tumor suppressor/Androgen receptor; experiment: PROTAC activity at AR/VHL in human 22Rv1 cells assessed as induction of androgen receptor degradation measured for 12 hrs by Western blot analysis; format: cell-based
[17] = biological target: T1, von Hippel-Lindau disease tumor suppressor/Androgen receptor; experiment: PROTAC activity at AR/VHL in human LNCaP cells assessed as induction of androgen receptor degradation at 1 uM measured for 6 hrs in presence of MG132 by Western blot analysis; format: cell-based
LNCaP [18] = experiment: Downregulation of PSA expression in human LNCaP cells measured up to 5 uM incubated for 12 hrs by RT-qPCR analysis; format: functional, cell-based
[19] = biological target: T1, von Hippel-Lindau disease tumor suppressor/Androgen receptor; experiment: PROTAC activity at AR/VHL in human LNCaP cells assessed as induction of androgen receptor degradation at 1 uM measured for 6 hrs in presence of VH032 by Western blot analysis; format: cell-based
[20] = biological target: T1, von Hippel-Lindau disease tumor suppressor/Androgen receptor; experiment: PROTAC activity at AR/VHL in human MCF7 cells assessed as effect on AR level at 0.03 to 10 uM measured for 12 hrs by Western blot analysis; format: cell-based; details: dose 0.03-10 µM
[21] = biological target: T1, von Hippel-Lindau disease tumor suppressor/Androgen receptor; experiment: PROTAC activity at AR/VHL in PSMA knockdown human LNCaP cells assessed as induction of androgen receptor degradation at 1 uM measured for 24 hrs by Western blot analysis; format: cell-based
[22] = biological target: T1, von Hippel-Lindau disease tumor suppressor/Androgen receptor; experiment: In vivo PROTAC activity at AR/VHL in BALB/c mouse xenografted with human LNCaP cells assessed as reduction in AR level in tumor at 1 mmol/L, iv measured for 3 days by Western blot analysis; format: functional, organism-based; details: time 3.0 day
[23] = biological target: T1, von Hippel-Lindau disease tumor suppressor/Androgen receptor; experiment: PROTAC activity at AR/VHL in human VCaP cells assessed as induction of androgen receptor degradation measured for 12 hrs by Western blot analysis; format: cell-based
[24] = biological target: T1, von Hippel-Lindau disease tumor suppressor/Androgen receptor; experiment: PROTAC activity at AR/VHL in human 22Rv1 cells assessed as induction of androgen receptor degradation at 1 uM measured for 6 hrs in presence of MLN4924 by Western blot analysis; format: cell-based
[25] = biological target: T1, von Hippel-Lindau disease tumor suppressor/Androgen receptor; experiment: PROTAC activity at AR/VHL in human MDA-MB-231 cells assessed as effect on AR level measured for 12 hrs by Western blot analysis; format: cell-based
Target sequence in this assay (P10275 whole entry): as the sequence (P10275 whole entry, looked up) above
Target sequence in this assay (P40337 whole entry): as the sequence (P40337 whole entry, looked up) above

[26] = biological target: T1, von Hippel-Lindau disease tumor suppressor/Androgen receptor; experiment: PROTAC activity at AR/VHL in human HEK293T cells assessed as effect on AR level measured for 12 hrs by Western blot analysis; format: cell-based
Target sequence in this assay (P10275 whole entry): as the sequence (P10275 whole entry, looked up) above
Target sequence in this assay (P40337 whole entry): as the sequence (P40337 whole entry, looked up) above

[27] = Drug accumulation in male BALB/c mouse tumor implanted with human 22Rv1 cells at 0.3 mmol/L, iv measured at 1 to 24 hrs by LC-MS/MS analysis; format: ADME, organism-based, Neoplasm, CWR22R; details: in vivo, time 1-24 hrs
[28] = biological target: T1, von Hippel-Lindau disease tumor suppressor/Androgen receptor; experiment: PROTAC activity at AR/VHL in human LNCaP cells assessed as induction of androgen receptor degradation measured for 12 hrs by Western blot analysis; format: cell-based
LNCaP [29] = experiment: Downregulation of TMPRSS2 expression in human LNCaP cells measured up to 5 uM incubated for 12 hrs by RT-qPCR analysis; format: functional, cell-based
[30] = biological target: T1, von Hippel-Lindau disease tumor suppressor/Androgen receptor; experiment: PROTAC activity at AR/VHL in human MCF7 cells assessed as effect on AR level measured for 12 hrs by Western blot analysis; format: cell-based
Target sequence in this assay (P10275 whole entry): as the sequence (P10275 whole entry, looked up) above
Target sequence in this assay (P40337 whole entry): as the sequence (P40337 whole entry, looked up) above

[31] = biological target: T1, von Hippel-Lindau disease tumor suppressor/Androgen receptor; experiment: PROTAC activity at AR/VHL in human HEK293T cells assessed as effect on AR level at 0.03 to 10 uM measured for 12 hrs by Western blot analysis; format: cell-based; details: dose 0.03-10 µM
[32] = biological target: T1, von Hippel-Lindau disease tumor suppressor/Androgen receptor; experiment: PROTAC activity at AR/VHL in human LNCaP cells assessed as induction of androgen receptor degradation at 1 uM measured for 6 hrs in presence of MLN4924 by Western blot analysis; format: cell-based

Structure (SMILES): Cc1ncsc1-c1ccc([C@H](C)NC(=O)[C@@H]2C[C@@H](O)CN2C(=O)[C@@H](NC(=O)COCCCOCCNC(=O)C[C@@H]2N=C(c3ccc(Cl)cc3)c3c(sc(C)c3C)-n3c(C)nnc32)C(C)(C)C)cc1
- Activity (CWR22R): Active
- Activity (J82): Active
- inhibition in vivo at 1020 µM (LNCaP [1]): 65.2%
- Activity (LNCaP [2]): Active
- Activity (DU-145): Active
- inhibition in vivo at 510 µM (LNCaP [3]): 56.2%
- Activity (VCaP): Active
- Activity (HEK-293T): Toxic
- Activity (Mus musculus): Active

- Activity [4]: Active
- Activity [5]: Active
Structure (SMILES): Cc1ncsc1-c1ccc(CNC(=O)[C@@H]2C[C@@H](O)CN2C(=O)[C@@H](NC(=O)CCCCCCCCCNC(=O)c2ccc(C(=O)N[C@H]3C(C)(C)[C@H](Oc4ccc(C#N)c(Cl)c4)C3(C)C)cc2)C(C)(C)C)cc1

- Activity [6]: Active
- Activity [7]: Active
- Activity [9]: Active
- Activity [10]: Active
- Activity [11]: Active
- Activity [12]: Active
- remaining at 24 h [13]: > 90%
- Activity [14]: Active
- Activity [15]: Active
- DC50 [16]: 50.2 nM
- Activity ([16]; dose 0.03-10 µM): Dose-dependent-effect
- Activity [17]: Active
- Activity [19]: Active
- Activity [20]: Active
- Activity [21]: Active
- Activity [22]: Active
- DC50 [23]: 21.9 nM
- Activity ([23]; dose 0.03-10 µM): Dose-dependent-effect
- Activity [24]: Active
- DC50 [25]: > 5000 nM
- DC50 [26]: > 5000 nM
- Drug uptake [27]: Active
- DC50 [28]: 44.4 nM
- Activity ([28]; dose 0.03-10 µM): Dose-dependent-effect
- DC50 [30]: > 5000 nM
- Activity [31]: Active
- Activity [32]: Active
Structure (SMILES): Cc1ncsc1-c1ccc(CNC(=O)[C@@H]2C[C@@H](OC(=O)CCOCCOCCOCCC(=O)NCCCC[C@H](NC(=O)N[C@@H](CCC(=O)O)C(=O)O)C(=O)O)CN2C(=O)[C@@H](NC(=O)CCCCCCCCCNC(=O)c2ccc(C(=O)N[C@H]3C(C)(C)[C@H](Oc4ccc(C#N)c(Cl)c4)C3(C)C)cc2)C(C)(C)C)cc1
- Activity (LNCaP [8]): Active
- Activity (LNCaP [18]): Active
- Activity (LNCaP [29]): Active
